Here are results for three compounds from paper PMC8131363 (Scientific Reports, 2021).

One assay has as its target T1, hCaSR (Homo sapiens, UniProt P41180).
T1 construct: expressed in transfected cells; host or cells: HEK293/natClytin (transient, pcDNA6 as delivered by GeneArt)
T1 sequence (P41180 20-1078): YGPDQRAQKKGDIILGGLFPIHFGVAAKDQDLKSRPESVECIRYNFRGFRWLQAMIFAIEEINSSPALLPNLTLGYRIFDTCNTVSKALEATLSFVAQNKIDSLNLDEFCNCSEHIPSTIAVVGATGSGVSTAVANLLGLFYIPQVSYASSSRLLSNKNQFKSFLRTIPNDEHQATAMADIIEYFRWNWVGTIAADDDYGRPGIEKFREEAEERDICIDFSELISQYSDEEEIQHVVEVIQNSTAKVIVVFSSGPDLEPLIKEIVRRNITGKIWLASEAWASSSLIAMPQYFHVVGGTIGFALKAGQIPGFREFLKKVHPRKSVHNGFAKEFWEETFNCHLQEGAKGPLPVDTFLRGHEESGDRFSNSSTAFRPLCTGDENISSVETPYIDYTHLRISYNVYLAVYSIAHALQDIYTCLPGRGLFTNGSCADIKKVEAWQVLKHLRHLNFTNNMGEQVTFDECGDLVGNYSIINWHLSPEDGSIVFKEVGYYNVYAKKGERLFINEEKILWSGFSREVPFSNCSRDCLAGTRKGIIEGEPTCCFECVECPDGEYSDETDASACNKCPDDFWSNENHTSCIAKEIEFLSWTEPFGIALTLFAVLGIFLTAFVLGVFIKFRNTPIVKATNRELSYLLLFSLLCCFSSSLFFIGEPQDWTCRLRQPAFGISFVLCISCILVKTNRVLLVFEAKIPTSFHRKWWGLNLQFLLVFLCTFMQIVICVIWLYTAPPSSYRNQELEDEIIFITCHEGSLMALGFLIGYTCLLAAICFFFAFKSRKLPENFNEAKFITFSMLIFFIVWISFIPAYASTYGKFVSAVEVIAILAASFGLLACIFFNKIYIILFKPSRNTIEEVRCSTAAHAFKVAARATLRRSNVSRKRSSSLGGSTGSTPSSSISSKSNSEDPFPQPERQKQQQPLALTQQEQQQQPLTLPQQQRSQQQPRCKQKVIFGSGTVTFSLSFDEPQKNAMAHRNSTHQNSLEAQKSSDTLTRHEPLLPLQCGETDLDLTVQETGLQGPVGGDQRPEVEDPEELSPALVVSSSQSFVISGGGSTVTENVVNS
As to the kind of experiment: hCaSR transiently expressed in HEK293/natClytin, agonist luminescence assay. Format: cell-based. The note with it: transiently expressed hCaSR; > 3 mM = maximal response not reached; read-out: hCaSR EC50. How it is done: (§1) The coding sequence of the Felis catus[52] and Homo sapiens[53] CaSR gene was synthesised by GeneArt (Thermo Fisher Scientific). The cat coding sequence was excised from the GeneArt construct and inserted in pcDNA3.1 for constitutive and transient expression or pcDNA5/ TO for inducible expression. For the human sequence the pcDNA6 vector as delivered by GeneArt was used without further sub-cloning.
(§2) All transient transfections were performed with Lipofectamine 2000 (Invitrogen) according to the manufacturer’s protocol.

The target of assay [1] is T2, cCaSR (Felis catus, UniProt C7FF08).
T2 sequence (C7FF08 1-1081): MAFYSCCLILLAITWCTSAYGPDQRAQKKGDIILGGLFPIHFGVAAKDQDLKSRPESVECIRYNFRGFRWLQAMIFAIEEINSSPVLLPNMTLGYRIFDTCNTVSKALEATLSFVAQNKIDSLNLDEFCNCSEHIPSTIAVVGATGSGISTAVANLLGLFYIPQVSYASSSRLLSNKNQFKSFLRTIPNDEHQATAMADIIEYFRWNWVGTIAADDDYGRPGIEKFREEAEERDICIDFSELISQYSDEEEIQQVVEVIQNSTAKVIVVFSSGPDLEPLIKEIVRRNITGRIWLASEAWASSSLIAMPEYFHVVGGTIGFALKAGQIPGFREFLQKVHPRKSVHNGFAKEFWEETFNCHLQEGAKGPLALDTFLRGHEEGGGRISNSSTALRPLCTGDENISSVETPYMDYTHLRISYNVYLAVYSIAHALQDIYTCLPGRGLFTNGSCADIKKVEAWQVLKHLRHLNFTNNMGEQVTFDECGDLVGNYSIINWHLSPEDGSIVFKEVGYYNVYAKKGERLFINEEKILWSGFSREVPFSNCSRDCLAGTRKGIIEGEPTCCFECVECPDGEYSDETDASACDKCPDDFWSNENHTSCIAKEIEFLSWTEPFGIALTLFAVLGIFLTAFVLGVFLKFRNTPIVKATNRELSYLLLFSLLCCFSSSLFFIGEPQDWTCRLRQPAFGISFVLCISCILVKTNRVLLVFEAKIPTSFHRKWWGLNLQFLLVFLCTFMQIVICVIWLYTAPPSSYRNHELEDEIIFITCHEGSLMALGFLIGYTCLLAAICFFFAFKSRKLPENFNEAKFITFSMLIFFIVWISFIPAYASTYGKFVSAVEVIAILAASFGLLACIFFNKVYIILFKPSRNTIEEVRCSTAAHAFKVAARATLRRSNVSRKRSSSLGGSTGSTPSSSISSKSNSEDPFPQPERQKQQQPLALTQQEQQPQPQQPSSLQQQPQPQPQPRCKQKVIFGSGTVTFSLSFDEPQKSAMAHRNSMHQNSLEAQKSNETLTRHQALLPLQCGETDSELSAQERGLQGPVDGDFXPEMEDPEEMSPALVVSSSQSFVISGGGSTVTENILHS
As to the kind of experiment: cCaSR transiently expressed in HEK293/natClytin, agonist luminescence assay. Format: cell-based. To be noted: transiently expressed cCaSR; > 3 mM = maximal response not reached; read-out: cCaSR EC50. How it is done: as §1, §2

Assay [2] deals with T2, cCaSR. As to the kind of experiment: cCaSR PAM luminescence assay, double injection with 0.5 mM CaCl2, HEK293/T-REx/natClytin-cCaSR. To be noted: Supplementary Table I, PAM assay, dash = no activity.

Turning to `[Ca+2].[Cl-].[Cl-]` [Ca^2+, CaCl2], the EC50 on hCaSR stood at 0.8 mM; on cCaSR [1], 1.15 mM. In addition, on cCaSR [2], the “EC50 PAM (M)” value was “-”.
Regarding `N[C@@H](CCC(=O)N[C@@H](CS)C(=O)NCC(=O)O)C(=O)O` [Glutathione], the EC50 at hCaSR and at cCaSR [1] was more than 3 mM in each case. For the same compound, on cCaSR [2], the “EC50 PAM (M)” value is given as “-”.
In the case of `[Cl-].[Cl-].[Mg+2]` [Mg^2+, MgCl2], the EC50 stood at 3.9 mM on hCaSR and 8.6 mM at cCaSR [1]. Moreover, the “EC50 PAM (M)” value on cCaSR [2] is listed as “-”.

As usually defined, the EC50 is the concentration at which the effect is half-maximal.
